From US9534221B2, “Targeting the steroidogenic pathway for treating and/or preventing allergic diseases” (National Jewish Health, priority 2013, dated 2017)

Assays:
Balb/c mice = test: Peanut-induced intestinal allergy model (PE sensitized and challenged mice); assay type: in vivo, mouse
Description: The experimental protocol for sensitization and challenge to peanut was previously described (Wang, M., et al. J. Allergy Clin. Immunol. 126, 306-316 (2010).
AMG was dissolved in 1 M hydrogen chloride and diluted with saline for in vivo studies or diluted with RPMI medium for in vitro study. The final concentration of 1 M hydrogen chloride was less than 1% and 0.05% for in vivo and in vitro, respectively. PE sensitized and challenged mice received different doses (5, 10, 20 mg/kg) of the Cyp11a1 enzyme inhibitor (PE/PE/AMG) by means of gavage using a 22-gauge feeding needle (Fisher Scientific) twice a day during the peanut challenge phase. Controls included PE sensitized and challenged but vehicle (saline) treated (PE/PE/vehicle), or sham sensitized but PE challenged and vehicle-treated (PBS/PE/vehicle) mice.
Anaphylactic symptoms were evaluated 30 minutes after the oral challenge, as previously reported (Li, X. M., et al. J. Allergy Clin. Immunol. 106:150-158 (2000)). Briefly, 0: no symptoms; 1: scratching and rubbing around the nose and head; 2: puffiness around the eyes and mouth, diarrhea, pilar erecti, reduced activity, and/or decreased activity with increased respiratory rate; 3: wheezing, labored respiration, and cyanosis around the mouth and the tail; 4: no activity after prodding or tremor and convulsion; and 5: death. Scoring of symptoms was performed in a blinded manner by an independent observer.
The jejunum was processed and stained with periodic acid-Schiff (PAS) and chloroacetate esterase for detection of mucosal mucus-containing cells and mast cells respectively, as previously described (Wang, M., et al. J. Allergy Clin. Immunol. 126, 306-316 (2010); Tomkinson, A., et al. Am. J. Respir. Crit. Care Med. 163, 721-730 (2001)). Numbers of mucosal cells expressing Cyp11a1 were identified by immunohistochemical (IHC) staining using anti-human Cyp11a1 antibody (Abcam, Cambridge, Mass.).
Serum peanut-specific IgE, IgG1, and IgG2a levels were measured by ELISA, as described previously (Payne, A. H. Biol. Reprod. 42, 399-404 (1990)).
Levels of histamine in plasma were measured using an enzyme immunoassay histamine kit (Beckman Coulter, Fullerton, Calif.), as described by the manufacturer. The concentration of histamine was calculated from a standard curve provided by the manufacturer.
RNA was extracted from jejunal tissue homogenates or from CD4 T cells cultured in vitro using Trizol (Invitrogen). cDNA was generated using the iScript cDNA synthesis kit (Bio-Rad Laboratories, Hercules, Calif.). Quantitative real-time PCR was performed on the ABI Prism 7300 sequence detection system (Applied Biosystems, Foster City, Calif.). All primers and probes used were purchased as Tagman Gene Expression Assays from Applied Biosystems. Fold change was calculated using the Delta Delta cycle threshold (ΔΔCT) method.

CD4 T cells = test: Th1, Th2, Th17 differentiation of naive CD4 T cells in vitro; assay type: cell-based, mouse
Description: Levels of IL-4, IL-13, IL-17A, and IFN-γ in cell culture supernatants were measured by ELISA (eBioscience, San Diego, Calif.) as described by the manufacturer. Pregnenolone levels in serum and cell culture supernatants were measured by ELISA (ALPCO Diagnostics, Salem, N.H.), as described by the manufacturer. Differentiation of Th1, Th2, or Th17 cells was performed as previously described with minor changes (Ashino, S., et al. Intl. Immunol. 22:503-513 (2010)). CD4^+CD45RB^+ T cells were isolated from naive TCR-transgenic mice (OT II mice) spleen using a cell sorter (MoFlo XDP, Beckman Coulter). In the presence of mitomycin-C-treated spleen cells, 5 μg/ml OVA323-339 peptide, and the inhibitor AMG ([…]), isolated naive CD4 T cells were cultured with rmIL-2 (10 ng/ml, R/D Systems), rmIL-12 (10 ng/ml, Peprotech), rmIFN-γ (5 ng/ml, Peprotech), and anti-IL-4 mAbs (10 μg/ml, eBioscience) to induce Th1 cell differentiation; with rmIL-2 (10 ng/ml, R/D Systems), rmIL-4 (5 ng/ml, Peprotech), and anti-IFN-γ mAb (10 μg/ml, eBioscience) for differentiation of Th2 cells; and […], Peprotech), anti-IL-4 mAb (10 μg/ml, eBioscience), and anti-IFN-γ mAb (10 μg/ml, eBioscience) for differentiation of Th17 cells. After 6 days of culture, the cells were washed with fresh medium and restimulated with anti-CD3/anti-CD28 for 24 hrs for assay of cytokine production. The cells were collected for quantitative RT-PCR and Western blot. In some experiments (for transduction experiment), the cells were cultured under Th1, Th2, and Th17 polarizing conditions for 5 days as described in Methods. Cultured cells were lysed as previously described (Ohnishi, H., et al. J. Allergy Clin. Immunol. 121:864-871 (2008)). Lysates were resolved by means of SDS-PAGE and transferred to nitrocellulose membranes. Proteins were detected using antibodies specific for Cyp11a1 (LifeSpan Biosciences. Seattle, Wash.) followed by chemiluminescence detection (GE Healthcare, Little Chalfont, UK). RNA was extracted from jejunal tissue homogenates or from CD4 T cells cultured in vitro using Trizol (Invitrogen). cDNA was generated using the iScript cDNA synthesis kit (Bio-Rad Laboratories, Hercules, Calif.). Quantitative real-time PCR was performed on the ABI Prism 7300 sequence detection system (Applied Biosystems, Foster City, Calif.). All primers and probes used were purchased as Tagman Gene Expression Assays from Applied Biosystems. Fold change was calculated using the Delta Delta cycle threshold (ΔΔCT) method.

[1] = polarized Th1, Th2 or Th17 cells, AMG 400 μM

**Q.** For `CCC1(c2ccc(N)cc2)CCC(=O)NC1=O` (stereo not drawn) [AMG, aminoglutethimide], which Clinical symptoms (Balb/c mice; 5 mg/kg) is on record?
**A.** no observed inhibitory effects

**Q.** And the Diarrhea occurrence (Balb/c mice; 5 mg/kg)?
**A.** no observed inhibitory effects

**Q.** And the Diarrhea (Balb/c mice; 10 mg/kg)?
**A.** partially inhibited

**Q.** What about the Symptom scores (Balb/c mice; 10 mg/kg) of the same molecule?
**A.** partially inhibited

**Q.** And the “Numbers of mast cells in the mucosa of the small intestine” value (Balb/c mice; 20 mg/kg)?
**A.** markedly reduced

**Q.** What about the “Numbers of mucus-producing goblet cells in the mucosa of the small intestine” value (Balb/c mice; 20 mg/kg) of the same molecule?
**A.** markedly reduced

**Q.** And the Clinical symptom scores (Balb/c mice; 20 mg/kg, 30 minutes after oral challenge)?
**A.** significantly diminished

**Q.** And the Development of diarrhea (Balb/c mice; 20 mg/kg, gavage twice a day during challenge phase)?
**A.** fully prevented

**Q.** What about the “Cyp11a1 mRNA in the small intestine” value (Balb/c mice; AMG 20 mg/kg) of the same molecule?
**A.** did not affect

**Q.** And the “GATA3 mRNA expression in the small intestine” value (Balb/c mice; AMG 20 mg/kg)?
**A.** not affected

**Q.** And the “IL4 mRNA expression in the small intestine” value (Balb/c mice; AMG 20 mg/kg)?
**A.** reduced to baseline levels

**Q.** And the “IL13 mRNA expression in the small intestine” value (Balb/c mice; AMG 20 mg/kg)?
**A.** reduced to baseline levels

**Q.** And the “IL17A mRNA expression in the small intestine” value (Balb/c mice; AMG 20 mg/kg)?
**A.** reduced to baseline levels

**Q.** And the “Numbers of Cyp11a1-positive cells in the small intestine” value (Balb/c mice; AMG 20 mg/kg)?
**A.** did not affect

**Q.** And the “RORγt mRNA expression in the small intestine” value (Balb/c mice; AMG 20 mg/kg)?
**A.** not affected

**Q.** What about the “T-bet mRNA expression in the small intestine” value (Balb/c mice; AMG 20 mg/kg) of the same molecule?
**A.** not affected

**Q.** What about the Plasma histamine levels (Balb/c mice; AMG 20 mg/kg, within 30 minutes of the last challenge) of the same molecule?
**A.** significantly lower

**Q.** And the “Serum peanut-specific IgE” value (Balb/c mice; AMG given after sensitization)?
**A.** unaffected

**Q.** And the “Serum peanut-specific IgG1” value (Balb/c mice; AMG given after sensitization)?
**A.** unaffected

**Q.** And the “Serum peanut-specific IgG2a” value (Balb/c mice; AMG given after sensitization)?
**A.** unaffected

**Q.** And the “IFNG mRNA expression” value (CD4 T cells; Th1 cells)?
**A.** no significant effects

**Q.** And the “Pregnenolone levels in culture supernates” value (CD4 T cells; Th2 cells, AMG 400 μM)?
**A.** significantly decreased

**Q.** And the “Pregnenolone levels in culture supernates” value (CD4 T cells; Th17 cells, AMG 400 μM)?
**A.** the decreases did not reach statistical significance

**Q.** What about the “Cyp11a1 mRNA expression levels” value (CD4 T cells; [1]) of the same molecule?
**A.** did not suppress

**Q.** What about the “Cyp11a1 protein expression levels” value (CD4 T cells; [1]) of the same molecule?
**A.** did not suppress

**Q.** What about the “IFN-γ levels in culture supernatants” value (CD4 T cells; polarized Th1 cell cultures) of the same molecule?
**A.** not affected

**Q.** And the “T-bet mRNA expression” value (CD4 T cells; polarized Th1 cells, 400 μM)?
**A.** did not have any effect

**Q.** What about the “IL-13 levels in culture supernatants” value (CD4 T cells; polarized Th2 cell cultures) of the same molecule?
**A.** decreased

**Q.** And the “IL13 mRNA” value (CD4 T cells; polarized Th2 cells)?
**A.** decreased

**Q.** What about the “GATA3 mRNA expression” value (CD4 T cells; polarized Th2 cells, 400 μM) of the same molecule?
**A.** did not have any effect

**Q.** And the “IL-17A levels in culture supernatants” value (CD4 T cells; polarized Th17 cell cultures)?
**A.** decreased

**Q.** What about the “IL17A mRNA” value (CD4 T cells; polarized Th17 cells) of the same molecule?
**A.** decreased

**Q.** What about the “RORγt mRNA expression” value (CD4 T cells; polarized Th17 cells, 400 μM) of the same molecule?
**A.** did not have any effect
